Experimental findings from article PMC10258454 (Nature, 2021) are described below.

Usually stoichiometry N stands for the number of molecules, sites or subunits per partner or assembly.

In series [1] the target is T1, AcbK (Actinoplanes sp. SE50/110, UniProt Q8RMD4). Nature of the series: X-ray crystallography, […] Å. The series is classed as binding. As to conditions: ATP site; MnCl2, acarbose present.
Series [2] deals with T1, AcbK. The settings on record: 2 mM ATP as phosphate donor, MgCl2, pH 8, 37 °C.
The target in series [3] is T2, porcine pancreatic amylase (PPA) (Sus scrofa, UniProt P00690).
T2 sequence (P00690 16-511): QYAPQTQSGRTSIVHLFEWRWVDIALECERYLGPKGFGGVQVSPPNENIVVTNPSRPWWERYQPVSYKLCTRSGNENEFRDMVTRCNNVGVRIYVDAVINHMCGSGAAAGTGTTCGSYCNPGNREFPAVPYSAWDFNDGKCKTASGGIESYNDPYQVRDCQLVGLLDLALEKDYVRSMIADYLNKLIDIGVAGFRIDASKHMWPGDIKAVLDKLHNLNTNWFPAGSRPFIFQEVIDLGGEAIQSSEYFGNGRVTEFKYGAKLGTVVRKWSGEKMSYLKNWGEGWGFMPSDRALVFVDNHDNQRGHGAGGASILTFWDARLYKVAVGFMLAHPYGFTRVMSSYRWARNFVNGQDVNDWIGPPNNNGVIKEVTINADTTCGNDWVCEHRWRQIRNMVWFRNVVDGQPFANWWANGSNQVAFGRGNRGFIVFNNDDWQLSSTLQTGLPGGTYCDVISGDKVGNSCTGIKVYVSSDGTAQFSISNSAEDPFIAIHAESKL
Nature of the series: colorimetric amylase assay, […] nm. The series is classed as biochemical. The settings on record: 30 °C.

For series [4], the target named is T3, human salivary amylase (HSA) (Homo sapiens, UniProt P0DUB6).
T3 sequence (P0DUB6 16-511): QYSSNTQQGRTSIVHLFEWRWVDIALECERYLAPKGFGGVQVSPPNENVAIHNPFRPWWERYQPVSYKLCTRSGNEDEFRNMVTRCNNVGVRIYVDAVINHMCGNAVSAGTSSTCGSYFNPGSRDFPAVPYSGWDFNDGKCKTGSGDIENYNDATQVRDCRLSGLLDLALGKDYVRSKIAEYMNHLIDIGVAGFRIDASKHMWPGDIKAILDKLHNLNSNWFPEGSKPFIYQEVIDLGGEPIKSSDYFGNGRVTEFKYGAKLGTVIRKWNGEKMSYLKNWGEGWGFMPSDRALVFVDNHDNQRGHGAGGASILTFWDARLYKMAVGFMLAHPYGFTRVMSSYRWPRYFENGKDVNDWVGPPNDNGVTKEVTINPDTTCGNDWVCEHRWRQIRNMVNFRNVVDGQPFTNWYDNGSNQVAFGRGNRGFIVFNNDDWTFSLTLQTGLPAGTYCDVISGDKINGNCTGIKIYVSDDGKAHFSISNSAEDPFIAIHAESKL
Nature of the series: colorimetric amylase assay, […] nm. It counts as biochemical. As to conditions: 30 °C.

Series [5] concerns the molecule itself. Nature of the series: crystal structure.

For `Nc1ncnc2c1ncn2[C@@H]1O[C@H](COP(=O)(O)OP(=O)(O)NP(=O)(O)O)[C@@H](O)[C@H]1O` [AMP-PNP], in series [1], the “X-ray crystallography, 2.4 Å” value was “crystal structure of AcbK bound to acarbose and a non-hydrolysable ATP analogue, adenylyl-imidodiphosphate (AMP-PNP)”.

In the case of `Nc1ncnc2c1ncn2[C@@H]1O[C@H](COP(=O)(O)OP(=O)(O)OP(=O)(O)O)[C@@H](O)[C@H]1O` [ATP], the “HPLC-MS of acarbose phosphorylation” value in series [2] is “we incubated the resulting proteins with ATP and acarbose”.

In the case of `CC1OC[C@H]2O[C@H](O[C@H]3[C@H](O)[C@@H](O)[C@@H](O[C@H]4[C@H](O)[C@@H](O)[C@@H](O[C@H]5[C@H](O)[C@@H](O)[C@@H](O[C@H]6[C@H](O)[C@@H](O)[C@@H](O[C@H]7[C@H](O)[C@@H](O)[C@@H](O[C@H]8[C@H](O)[C@@H](O)[C@@H](Oc9ccc([N+](=O)[O-])cc9)O[C@@H]8CO)O[C@@H]7CO)O[C@@H]6CO)O[C@@H]5CO)O[C@@H]4CO)O[C@@H]3CO)[C@H](O)[C@@H](O)[C@@H]2O1` (stereo partly drawn) [ethylidene-pNP-G7], the “colorimetric amylase assay, 405 nm” value in series [3] and in series [4] was “cleavage of an oligosaccharide substrate mimic (ethylidene-pNP-G7)” in each case.

B1: AcbK (acarbose kinase of Actinoplanes sp. SE50/110) (enzyme, UniProt Q8RMD4 1-299, looked up)
chain: MSEHTDVLVLGGAGVDTIAYVPELPLPFQDSYVVAAIEPRAGQTGDNVALGLHTLGLRTMHVDVLGDDPEGDLVRAFHTRHGLPFAALPTAAGTKRAVNLVGPDGRRLSLWDGSREAEEDRYPAALIAAHTAHARHVHVCITPPGQHVFGQLNDLPVTVSTDLHNWDGAYEGFEVYAFNADLVFLSATALTDVAATMRRVIDRGRARLVVATDGAHGGSVLVRGETEVRRYAAVAPEAPVVDSNGAGDAFVSGFLFGHLAGEPLETCLRYGAIAGAYACTIPATRAGAIDRAALLRPAA
For B1, the “stoichiometry N” value in series [5] was determined as 2.

B2: Mak1 (microbiome-derived acarbose kinase 1) (enzyme)
chain: MTQADVLVVGGVGVDHIVRVKSLPLPVVDSMMVPPIVTVVGHTGNGVALGVHALGRASAMADVIGDDAEGRLIQDAYSAAGIPITFVTHISGTRRSVNLVTEEGQRMSLYDPRHPFEFIPDPSLWREGIERSRHVHVSIMNWARYALRDAVAAGRSTSTDLHDWDGVADYHKDFAYGADYVFVSAAALRDESGVVADVFARGRAQFVVVMAGSEGARVWRRSDELPLRISPISIPGRPVVDSNGAGDSFVAAFLCHYLDHGDIFGAARAGAVGGAWACGTLGTHTSFVDVETLERLLAR
Turning to B2, the “stoichiometry N” value in series [5] was found to be 2.
